Source: ChEMBL document CHEMBL1134848, “Synthesis and biological evaluation of a spongistatin AB-spiroketal analogue” (2002)

How the values were obtained:
Assay type in all cases: functional
BXPC-3 = assay: In vitro growth inhibitory activity on human Pancreas-a (BXPC-3) cell line
DU-145 = assay: In vitro growth inhibitory activity on human Prostate (DU-145) cell line
KM-20L2 = assay: In vitro growth inhibitory activity on human Colon (KM20L2) cell line
MCF7 = assay: In vitro growth inhibitory activity on human Breast adn (MCF-7) cell line
NCI-H460 = assay: In vitro growth inhibitory activity on human Lung-NSC (NCI-H460) cell line
SF-268 = assay: In vitro growth inhibitory activity on human CNS Gliobl (SF268) cell line

Measured: GI50

CC(=O)OC1CC(CCO)OC2(C1)CC(C)(O)CC(CO)O2 (single isomer, unassigned; (-))
> 10 µg/mL: all assays above

OCC1CCCC2(CCCC(CO)O2)O1 (single isomer, unassigned; (-))
> 10 µg/mL: all assays above
